What was measured:
[1] = tested on: Aedes aegypti; test: Warm Body assay, repellence of mosquito landing on treated warm body; type: in vivo; conditions: for reduction of the number of mosquito landing: since the dose of 0.0016%
[2] = tested on: Ixodes ricinus; test: Warm Plate Assay, tick repellence
[3] = tested on: Anopheles gambiae; test: Warm Body assay, repellence of mosquito landing on treated warm body; type: in vivo
Experimental: Anopheles gambiae is also a model organism as it is anthropophilic and transmits malaria.
The controlling effect according to the present invention was assessed using an adapted Warm Body assay as defined in Kröber T, Kessler S, Frei J, Bourquin M, Guerin PM. 2010. J Am Mosq Control Assoc. 26:381-386. In this in-vitro assay the number of mosquito landing on a warm body, simulating an attractive host treated with the tested stimuli, was measured in order to assess the repellence effect.
On the sandblasted glass Petri dish covering the warm body (28.3 cm^2), 100 μL of the compounds diluted at different concentrations in ethanol was applied. The number of mosquito landing on the warm body was counted for each stimulus and pure ethanol (solvent) as control.

[4] = tested on: Aedes aegypti; test: Arm-in-cage test on human volunteers; type: in vivo; conditions: arm treated with 20%, three human volunteers
Experimental: The controlling effect, repellence & spatial repellence, according to the present invention is also determined according to an arm in the box method adapted from the WHO Guidelines for efficacy repellents testing of mosquito for human skin (WHO/CDS/NTD/WHOPES/2009.4). The readiness of 100 hungry female mosquitoes A. aegypti to a test substance is assessed by comparing the results of an untreated arm to a treated in when inserted into the cage (40×40×40 cm) for 30 seconds (negative control) three times. Further information is provided in the accompanying examples.
Arm-In-Cage Test is the Large-Scale Test Used to Assess on Human Volunteer the Repellent Efficacy on Mosquitoes.
The Arm in the box method was adapted from the WHO Guidelines for efficacy testing of mosquito repellents for human skin (WHO/CDS/NTD/WHOPES/2009.4). The readiness of 100 hungry female mosquitoes A. aegypti to probe is assessed by inserting an untreated arm into the cage (40×40×40 cm) for 30 seconds (negative control) three times (once at the beginning, once at the fourth hour and once at the eighth hour), to determine probing activity. Then, the product is applied onto the skin of the forearm of a human volunteer (1 mL per 600 cm^2) and after 5 minutes, this arm is inserted into the cage and exposed for 3 minutes. The assay take place in temperature (27±2° C.) and humidity (80±10% RH) regulated room on three different volunteers.

| Compound | Percentage of repellence of mosquitoes Aedes aegypti landing on the warm body ([1]; 0.0032 mg/mL) [%] | Percentage of repellence of mosquitoes Aedes aegypti landing on the warm body ([1]; 0.016 mg/mL) [%] | Percentage of repellence of mosquitoes Aedes aegypti landing on the warm body ([1]; 0.08 mg/mL) [%] | Percentage of repellence of mosquitoes Aedes aegypti landing on the warm body ([1]; 0.4 mg/mL) [%] | Percentage of repellence of mosquitoes Aedes aegypti landing on the warm body ([1]; 2 mg/mL) [%] | Percentage of repellence of mosquitoes Aedes aegypti landing on the warm body ([1]; 10 mg/mL) [%] | Percentage of repellence of mosquitoes Anopheles gambiae landing on the warm body ([3]; 4.47 mg/mL) [%] | Percentage of repellence of mosquitoes Anopheles gambiae landing on the warm body ([3]; 10 mg/mL) [%] | also measured |
| --- | --- | --- | --- | --- | --- | --- | --- | --- | --- |
| COC(C)(C)c1ccc(CCC=O)cc1 [compound 681, 3-[4-(2-methoxy-2-propanyl)phenyl]propanal] | 0 | 0 | 31 | 49 | 89 | 92 |  |  | Percentage of repellence of ticks Ixodes ricinus on the warm plate ([2]; 0.08 mg/mL): 0.0%; Percentage of repellence of ticks Ixodes ricinus on the warm plate ([2]; 0.4 mg/mL): 13.3%; Percentage of repellence of ticks Ixodes ricinus on the warm plate ([2]; 2 mg/mL): 92.3%; Percentage of repellence of ticks Ixodes ricinus on the warm plate ([2]; 10 mg/mL): 92.0%; repellence of ticks Ixodes ricinus ([2]; 0.2% of stimulus applied): above 90%; repellence of ticks Ixodes ricinus ([2]; 1% of stimulus applied): above 90% |
| COC(C)(C)c1ccc(CCC=O)c(C)c1 [compound 875, 3-[4-(2-methoxy-2-propanyl)-2-methylphenyl]propanal] | 39 | 60 | 24 | 81 | 81 | 96 | 97 | 100 | reduction of the number of mosquito landing [1]: by half; Percentage of repellence of mosquitoes Anopheles gambiae landing on the warm body ([3]; 0.178 mg/mL): 69%; Percentage of repellence of mosquitoes Anopheles gambiae landing on the warm body ([3]; 0.267 mg/mL): 66%; Percentage of repellence of mosquitoes Anopheles gambiae landing on the warm body ([3]; 0.4 mg/mL): 93%; mosquitoes repelled ([3]; lowest concentration tested, 0.0178%): > 60% |
| COc1ccc(CC(C)C=O)cc1 (stereo not shown) [compound 251, 3-(4-methoxyphenyl)-2-methylpropanal] | 0 | 0 | 40 | 79 | 96 | 89 | 100 | 96 | Percentage of repellence of mosquitoes Aedes aegypti landing on the warm body ([1]; 0.0071 mg/mL): 0%; Percentage of repellence of mosquitoes Aedes aegypti landing on the warm body ([1]; 0.0357 mg/mL): 61%; Percentage of repellence of mosquitoes Aedes aegypti landing on the warm body ([1]; 0.053 mg/mL): 54%; Percentage of repellence of mosquitoes Aedes aegypti landing on the warm body ([1]; 0.119 mg/mL): 52%; Percentage of repellence of mosquitoes Aedes aegypti landing on the warm body ([1]; 0.178 mg/mL): 71%; Percentage of repellence of mosquitoes Aedes aegypti landing on the warm body ([1]; 0.267 mg/mL): 97%; Percentage of repellence of mosquitoes Aedes aegypti landing on the warm body ([1]; 0.598 mg/mL): 93%; Percentage of repellence of mosquitoes Aedes aegypti landing on the warm body ([1]; 0.89 mg/mL): 99%; Percentage of repellence of mosquitoes Aedes aegypti landing on the warm body ([1]; 4.47 mg/mL): 97%; percentage of repellence compared to untreated arm (mean ± SD) ([4]; 5 min post-application): 100% ±; percentage of repellence compared to untreated arm (mean ± SD) ([4]; 1 h post-application): 99.84% ±; percentage of repellence compared to untreated arm (mean ± SD) ([4]; 2 h post-application): 98.82% ±; percentage of repellence compared to untreated arm (mean ± SD) ([4]; 3 h post-application): 95.59% ±; percentage of repellence compared to untreated arm (mean ± SD) ([4]; 4 h post-application): 87.3% ±; percentage of repellence compared to untreated arm (mean ± SD) ([4]; 5 h post-application): 81.02% ±; percentage of repellence compared to untreated arm (mean ± SD) ([4]; 6 h post-application): 73.75% ±; percentage of repellence compared to untreated arm (mean ± SD) ([4]; 7 h post-application): 65.56% ±; percentage of repellence compared to untreated arm (mean ± SD) ([4]; 8 h post-application): 64.04% ± |
| CC(C)c1cccc(C(C)CC=O)c1 (stereo not shown) [compound 1389, 3-(3-propan-2-ylphenyl)butanal] | 11 | 0 | 53 | 81 | 87 | 90 | 58 | 96 | Percentage of repellence of mosquitoes Aedes aegypti landing on the warm body ([1]; 0.0357 mg/mL): 8%; Percentage of repellence of mosquitoes Aedes aegypti landing on the warm body ([1]; 0.053 mg/mL): 74%; Percentage of repellence of mosquitoes Aedes aegypti landing on the warm body ([1]; 0.178 mg/mL): 30%; Percentage of repellence of mosquitoes Aedes aegypti landing on the warm body ([1]; 0.89 mg/mL): 88%; Percentage of repellence of mosquitoes Aedes aegypti landing on the warm body ([1]; 4.47 mg/mL): 84% |
| CC(C)(O)Cc1ccc(CCC=O)cc1 [compound 867, 3-[4-(2-hydroxy-2-methylpropyl)phenyl]propanal] |  | 13 |  | 27 |  | 81 |  |  |  |
| CC(C)(C)c1ccc(CCC=O)cc1 [compound 294, 3-(4-tert-butylphenyl)propanal] |  | 57 |  | 54 |  | 96 | 96 | 96 | reduction of the number of mosquito landing [1]: by half; Percentage of repellence of mosquitoes Anopheles gambiae landing on the warm body ([3]; 0.178 mg/mL): 42%; Percentage of repellence of mosquitoes Anopheles gambiae landing on the warm body ([3]; 0.267 mg/mL): 14%; Percentage of repellence of mosquitoes Anopheles gambiae landing on the warm body ([3]; 0.4 mg/mL): 55% |
| Cc1cc(C(C)(C)C)ccc1CCC=O [compound 859, 3-[2-methyl-4-(2-methyl-2-propanyl)phenyl] propanal] |  | 21 |  | 65 |  | 98 |  |  |  |
